Consider 33 compounds from patent US8871756B2 (Hoffmann-La Roche Inc., priority 2011, dated 2014).

Structures can show the parent of a compound that is named as a salt.

For the test, the system named is RSV Long strain. The test can be described thus: Viral cytopathic effect (CPE) assay, anti-RSV activity. The format is cell-based, Respiratory Syncytial Virus. Particulars: human respiratory syncytial virus, 144 h, RSV Long strain (ATCC); cell viability after 6 days, Cell Counting kit-8. Summed up: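 Cells (6×10^3/well, DMEM with 10% FBS) were infected next day with RSV Long strain, at a dose giving approximately 80–90% CPE, alongside serial half-log compound dilutions. Viability was read after 6 days by CCK-8 absorbance at 450 nm (reference 630 nm), and EC50 was derived from it.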

Regarding `Cc1ccc2nc(N3CCS(=O)(=O)c4ccccc4C3)cc(NC3CNC3)c2c1` [Example 26-1, N-(Azetidin-3-yl)-2-(1,1-dioxido-2,3-dihydro-1,4-benzothiazepin-4(5H)-yl)-6-methylquinolin-4-amine], the midpoint of the response, the EC50, lay at 0.005 µM.
Turning to `Cc1ccc2nc(N3CCS(=O)(=O)c4ccccc4C3)cc(C)c2c1` [Example 99, 4-(4,6-Dimethylquinolin-2-yl)-2,3,4,5-tetrahydro-1,4-benzothiazepine 1,1-dioxide], a half-maximal response (EC50) required 3 µM.
To `Cc1ccc2nc(N3CCS(=O)(=O)c4ccccc4C3)cc(N3CC[C@H](O)C3)c2c1` [Example 15-3, (3S)-1-[2-(1,1-Dioxido-2,3-dihydro-1,4-benzothiazepin-4(5H)-yl)-6-methylquinolin-4-yl]pyrrolidin-3-ol] belongs 2.7 µM; to `Cc1ccc2nc(N3CCS(=O)(=O)c4ccccc4C3)cc(N3CC(N)C3)c2c1` [Example 26-2, 1-[2-(1,1-Dioxido-2,3-dihydro-1,4-benzothiazepin-4(5H)-yl)-6-methylquinolin-4-yl]azetidin-3-amine], 0.179 µM.
As for `Cc1ccc2nc(N3CCS(=O)(=O)c4ccccc4C3)cc(NC(=O)c3ccccn3)c2c1` [Example 48, N-[2-(1,1-Dioxido-2,3-dihydro-1,4-benzothiazepin-4(5H)-yl)-6-methylquinolin-4-yl]pyridine-2-carboxamide], the figure is 0.009 µM; as for `Cc1ccc2nc(N3CCS(=O)(=O)c4ccccc4C3)cc(NCC(=O)O)c2c1` [Example 9-8, N-[2-(1,1-Dioxido-2,3-dihydro-1,4-benzothiazepin-4(5H)-yl)-6-methylquinolin-4-yl]glycine], 3.48 µM.
To `Cc1ccc2nc(N3CCC(F)(F)c4ccccc4C3)cc(N3CCN(C)CC3)c2c1` [Example 110-13, 5,5-Difluoro-2-[6-methyl-4-(4-methylpiperazin-1-yl)quinolin-2-yl]-2,3,4,5-tetrahydro-1H-2-benzazepine] belongs 3.68 µM; to `Cc1ccc2nc(N3CCS(=O)(=O)c4ccccc4C3)cc(NCC(C)C(N)=O)c2c1` (stereo not drawn) [Example 36-3, 3-{[2-(1,1-Dioxido-2,3-dihydro-1,4-benzothiazepin-4(5H)-yl)-6-methylquinolin-4-yl]amino}-2-methylpropanamide], 2.15 µM; to `C[S+]([O-])c1ccc2nc(N3CCS(=O)(=O)c4ccccc4C3)cc(NCCCN)c2c1` (stereo not drawn) [Example 80, N-[2-(1,1-Dioxido-2,3-dihydro-1,4-benzothiazepin-4(5H)-yl)-6-(methylsulfinyl)quinolin-4-yl]propane-1,3-diamine], 5.48 µM.
Turning to `COCCNCCNc1cc(N2CCS(=O)(=O)c3ccccc3C2)nc2ccc(C)cc12` [Example 3-44, N-[2-(1,1-Dioxido-2,3-dihydro-1,4-benzothiazepin-4(5H)-yl)-6-methylquinolin-4-yl]-N′-(2-methoxyethyl)ethane-1,2-diamine], the EC50 (as a rule, the concentration that produces a half-maximal response) was found to be 0.012 µM.
To `NCCCNc1cc(N2CCS(=O)(=O)c3ccccc3C2)nc2c(Cl)cccc12` [Example 9-12, N-[8-Chloro-2-(1,1-dioxido-2,3-dihydro-1,4-benzothiazepin-4(5H)-yl)quinolin-4-yl]propane-1,3-diamine] belongs 2.66 µM; to `CC(=O)NCC1(CNc2cc(N3CCS(=O)(=O)c4ccccc4C3)nc3ccc(C)cc23)COC1` [Example 63-2, N-{[3-({[2-(1,1-D ioxido-2,3-dihydro-1,4-benzothiazepin-4(5H)-yl)-6-methylquinolin-4-yl]amino}methyl)oxetan-3-yl]methyl}acetamide], 2.02 µM.
To `Cc1ccc2nc(N3CCS(=O)(=O)c4ccccc4C3)cc(CCCN)c2c1` [Example 96, 3-[2-(1,1-Dioxido-2,3-dihydro-1,4-benzothiazepin-4(5H)-yl)-6-methylquinolin-4-yl]propan-1-amine] belongs 2.83 µM.
As for `Cc1ccc2nc(N3CC[S+]([O-])c4ccccc4C3)nc(NCC(F)CN)c2c1` (stereo not drawn) [Example 55-3, 2-Fluoro-N-[6-methyl-2-(1-oxido-2,3-dihydro-1,4-benzothiazepin-4(5H)-yl)quinazolin-4-yl]propane-1,3-diamine], the figure is 0.006 µM; as for `Cc1ccc2nc(N3CCS(=O)(=O)c4ccccc4C3)cc(NCCNc3ccccn3)c2c1` [Example 46, N-[2-(1,1-Dioxido-2,3-dihydro-1,4-benzothiazepin-4(5H)-yl)-6-methylquinolin-4-yl]-N′-(pyridin-2-yl)ethane-1,2-diamine], 0.682 µM; as for `Cc1ccc2nc(N3CCC(F)(F)c4ccccc4C3)cc(N[C@H]3CC[C@@H](N)CC3)c2c1` [Example 110-9, cis-N-[2-(5,5-Difluoro-1,3,4,5-tetrahydro-2H-2-benzazepin-2-yl)-6-methylquinolin-4-yl]cyclohexane-1,4-diamine], 1.37 µM.
With `Cc1ccc2nc(N3CCS(=O)(=O)c4ccccc4C3)cc(NCCCO)c2c1` [Example 9-5, 3-{[2-(1,1-Dioxido-2,3-dihydro-1,4-benzothiazepin-4(5H)-yl)-6-methylquinolin-4-yl]amino}propan-1-ol], a half-maximal effect (EC50) was put at 0.179 µM.
On to `O=S1(=O)CCN(c2cc(NCCO)c3cc(Cl)ccc3n2)Cc2ccccc21` [Example 9-31, 2-{[6-Chloro-2-(1,1-dioxido-2,3-dihydro-1,4-benzothiazepin-4(5H)-yl)quinolin-4-yl]amino}ethanol], for which the 50% effective concentration (EC50) turned out to be 2.43 µM.
As for `NCCNc1cc(N2CCCc3ccc(O)cc3C2)nc2ccccc12` [Example 118-2, 2-{4-[(2-Aminoethyl)amino]quinolin-2-yl}-2,3,4,5-tetrahydro-1H-2-benzazepin-8-ol], the figure is 0.048 µM; as for `Cc1ccc2nc(N3CCS(=O)(=O)c4ccccc4C3)cc(NCC3(N)COC3)c2c1F` [Example 3-25, N-[(3-Aminooxetan-3-yl)methyl]-2-(1,1-dioxido-2,3-dihydro-1,4-benzothiazepin-4(5H)-yl)-5-fluoro-6-methylquinolin-4-amine], 0.022 µM; as for `COc1ccc2c(c1)CN(c1cc(NCC3(CN)COC3)c3ccccc3n1)CCS2(=O)=O` [Example 3-4, N-{[3-(Aminomethyl)oxetan-3-yl]methyl}-2-(7-methoxy-1,1-dioxido-2,3-dihydro-1,4-benzothiazepin-4(5H)-yl)-quinolin-4-amine], 0.006 µM.
To `NC1(CNc2cc(N3CCSc4ccccc4C3)nc3ccc(Cl)cc23)COC1` [Example 4-1, N-[(3-Aminooxetan-3-yl)methyl]-6-chloro-2-(2,3-dihydro-1,4-benzothiazepin-4(5H)-yl)quinolin-4-amine] belongs 0.269 µM; to `NCC(O)CNc1cc(N2CCCc3ccccc3C2)nc2ccccc12` (stereo not drawn) [Example 118-8, 1-Amino-3-{[2-(1,3,4,5-tetrahydro-2H-2-benzazepin-2-yl)quinolin-4-yl]amino}propan-2-ol trifluoroacetate (salt)], 0.223 µM; to `Cc1ccc2nc(N3CCS(=O)(=O)c4ccccc4C3C)cc(NCC3(N)COC3)c2c1` (stereo not drawn) [Example 2-8, N-[(3-Aminooxetan-3-yl)methyl]-6-methyl-2-(5-methyl-1,1-dioxido-2,3-dihydro-1,4-benzothiazepin-4(5H)-yl)quinolin-4-amine], 0.055 µM.
Turning to `Cc1ccc2nc(N3Cc4ccccc4S(=O)(=O)C(C)C3)cc(NCCN)c2c1` (stereo not drawn) [Example 69-1, N-[6-Methyl-2-(2-methyl-1,1-dioxido-2,3-dihydro-1,4-benzothiazepin-4(5H)-yl)quinolin-4-yl]ethane-1,2-diamine], the EC50 amounted to 0.007 µM.
To `Cc1cccc2c(NCCCN)cc(N3CCS(=O)(=O)c4ccccc4C3)nc12` [Example 17-5, N-[2-(1,1-Dioxido-2,3-dihydro-1,4-benzothiazepin-4(5H)-yl)-8-methylquinolin-4-yl]propane-1,3-diamine] belongs 1.5 µM; to `Cc1ccc2nc(N3CCS(=O)(=O)c4cc(Oc5ccccc5)ccc4C3)cc(NCC3(N)COC3)c2c1` [Example 35, N-[(3-Aminooxetan-3-yl)methyl]-2-(1,1-dioxido-8-phenoxy-2,3-dihydro-1,4-benzothiazepin-4(5H)-yl)-6-methylquinolin-4-amine], 2.79 µM; to `NCC1(CNc2nc(N3CCS(=O)(=O)c4ccccc4C3)nc3ccc(C(=O)O)cc23)COC1` [Example 108-2, 4-({[3-(Aminomethyl)oxetan-3-yl]methyl}amino)-2-(1,1-dioxido-2,3-dihydro-1,4-benzothiazepin-4(5H)-yl)quinazoline-6-carboxylic acid], 2.47 µM.
To `Cc1ccc2nc(N3CCS(=O)(=O)c4ccccc4C3)nc(NCC(F)(F)CN)c2c1` [Example 56-4, N-[2-(1,1-Dioxido-2,3-dihydro-1,4-benzothiazepin-4(5H)-yl)-6-methylquinazolin-4-yl]-2,2-difluoropropane-1,3-diamine] belongs 0.027 µM; to `CNCCNc1cc(N2CCS(=O)(=O)c3ccccc3C2)nc2ccc(Cl)cc12` [Example 9-32, N-[6-Chloro-2-(1,1-dioxido-2,3-dihydro-1,4-benzothiazepin-4(5H)-yl)quinolin-4-yl]-N′-methylethane-1,2-diamine], 0.063 µM.
To `Cc1ccc2nc(N3CCC(F)(F)c4ccccc4C3)cc(N(CCO)CCO)c2c1` [Example 110-11, 2,2′-{[2-(5,5-Difluoro-1,3,4,5-tetrahydro-2H-2-benzazepin-2-yl)-6-methylquinolin-4-yl]imino}diethanol] belongs 6.75 µM.
For `Cc1ccc2nc(N3CCS(=O)(=O)c4ccccc4C3)cc(NCCO)c2c1` [Example 3-38, 2-{[2-(1,1-Dioxido-2,3-dihydro-1,4-benzothiazepin-4(5H)-yl)-6-methylquinolin-4-yl]amino}ethanol], the EC50 was determined as 0.0439 µM.
To `Cc1ccc2nc(N3CCS(=O)(=O)c4ccccc4C3)nc(NCC3(CN)COC3)c2c1` [Example 56-1, N-{[3-(Aminomethyl)oxetan-3-yl]methyl}-2-(1,1-dioxido-2,3-dihydro-1,4-benzothiazepin-4(5H)-yl)-6-methylquinazolin-4-amine] belongs 0.002 µM.
